Reference: the OligoGym collection
Where “and” joins values, the source holds several entries; their conditions need not be identical. Equal values may be shown once. After the bases stand the sugars from the 5' end (letter, count) and the backbone: PS all phosphorothioate, else s phosphorothioate and o phosphodiester by linkage. Methylation of C is not given here. k = constrained ethyl (cEt); d = 2'-deoxy (DNA)

biological target: MALAT1; conditions: ASO, A431, 0.005 µM

Sequence	target mRNA inhibition
GCGCTTAAGAGGGCAG (sugars k3 d10 k3, PS)	6%
GCTAAGATGCTAGCTT (sugars k3 d10 k3, PS)	10%
GCTACAACAAGTAAGC (sugars k3 d10 k3, PS)	9%
GCTAGTCCTCAGGATT (sugars k3 d10 k3, PS)	47%
GCTCACAAGGCAAATC (sugars k3 d10 k3, PS)	-4%
GCTCCTGACAAATTAT (sugars k3 d10 k3, PS)	17%
GCTGAAATCTATTCAA (sugars k3 d10 k3, PS)	-159%
GCTGAACTATCACAAT (sugars k3 d10 k3, PS)	27%
GCTGTCAATTAATGCT (sugars k3 d10 k3, PS)	24%
GCTGTCTTCCTAGATT (sugars k3 d10 k3, PS)	36%
GCTTTGTTGTCTCTCC (sugars k3 d10 k3, PS)	93% and 97%
GGAAAGCGAGTTCAAG (sugars k3 d10 k3, PS)	24%
GGAATGGCCAGCCTAT (sugars k3 d10 k3, PS)	17%
GGAATTCGATCACCTT (sugars k3 d10 k3, PS)	29%
GGAGAGGCCAGTTGCG (sugars k3 d10 k3, PS)	-10%
GGATCATTAAGCCACT (sugars k3 d10 k3, PS)	15%
GGATCCTCTACGCACA (sugars k3 d10 k3, PS)	19%
GGCAAAATGGCGGACT (sugars k3 d10 k3, PS)	-14%
GGCAAACGAAACATTG (sugars k3 d10 k3, PS)	35%
GGCCAAGTCTGTTATG (sugars k3 d10 k3, PS)	-1%
GGCCAGCCTATAAGGA (sugars k3 d10 k3, PS)	6%

Sequence	target mRNA inhibition
GGCCTACTCAAGCTCT (sugars k3 d10 k3, PS)	14%
GGCTCATATTTAACTT (sugars k3 d10 k3, PS)	20%
GGGTACTTCAAGCATT (sugars k3 d10 k3, PS)	43%
GGTTTTAGTCACTGGA (sugars k3 d10 k3, PS)	85% and 95%
GGTTTTATCTAAATAC (sugars k3 d10 k3, PS)	25%
GTAACAGGCCACTGCC (sugars k3 d10 k3, PS)	14%
GTAATTACTCTTGATC (sugars k3 d10 k3, PS)	47%
GTACACCCAGTGGCTC (sugars k3 d10 k3, PS)	6%
GTACTATAGCATCTGT (sugars k3 d10 k3, PS)	45%
GTACTATCCCATCACT (sugars k3 d10 k3, PS)	33%
GTAGACCAACTAAGCG (sugars k3 d10 k3, PS)	26%
GTAGTAAGAATCTCAG (sugars k3 d10 k3, PS)	80% and 71%
GTAGTTGTATTAATCT (sugars k3 d10 k3, PS)	68% and 65%
GTATGACATATAATCT (sugars k3 d10 k3, PS)	55% and 77%
GTCAATAGTACTATAG (sugars k3 d10 k3, PS)	58% and 42%
GTCAATTAATGCTAGT (sugars k3 d10 k3, PS)	41%
GTCAGGGACACACCCA (sugars k3 d10 k3, PS)	-11%
GTCTCCGAAGACACAG (sugars k3 d10 k3, PS)	-5%
GTCTGAAGAATACCAT (sugars k3 d10 k3, PS)	47%
GTGGAAAGATTTGAGC (sugars k3 d10 k3, PS)	17%
GTGGTTATAGCTTGAC (sugars k3 d10 k3, PS)	79% and 93%

Sequence	target mRNA inhibition
GTGTTCGCAGACAAAG (sugars k3 d10 k3, PS)	10%
GTGTTTACACTGCTCT (sugars k3 d10 k3, PS)	6%
GTTAACTAGGCTTTAA (sugars k3 d10 k3, PS)	23%
GTTACCAATAATTTCC (sugars k3 d10 k3, PS)	71% and 50%
GTTACTTGCCAACTTG (sugars k3 d10 k3, PS)	63% and 81%
GTTAGGTATGAGCTTC (sugars k3 d10 k3, PS)	15%
GTTCAACCCACCAAAG (sugars k3 d10 k3, PS)	36%
GTTCAAGTGGCCTTTT (sugars k3 d10 k3, PS)	22%
GTTCGAGAAATCGGAG (sugars k3 d10 k3, PS)	15%
GTTGAGAAGTGGCAAA (sugars k3 d10 k3, PS)	20%
GTTGATATTTAAGAAC (sugars k3 d10 k3, PS)	-15%
GTTTACCACCTTTTGA (sugars k3 d10 k3, PS)	3%
GTTTCCTAGCTTGTCT (sugars k3 d10 k3, PS)	57%
TAAAGTAGACCAACTA (sugars k3 d10 k3, PS)	14%
TAAATAAGGAGACAGC (sugars k3 d10 k3, PS)	38%
TAAATTGGTTCTGGTC (sugars k3 d10 k3, PS)	49%
TAACCAACTTCCCCTT (sugars k3 d10 k3, PS)	16%
TAACTAGGCTTTAAAT (sugars k3 d10 k3, PS)	14%
TAAGCGAATGGCTTTG (sugars k3 d10 k3, PS)	7%
TAAGGACAGCTAAGAT (sugars k3 d10 k3, PS)	24%
TAAGTTGGTTTTAGTC (sugars k3 d10 k3, PS)	78% and 92%

Sequence	target mRNA inhibition
TAATCTCCCACCTGTC (sugars k3 d10 k3, PS)	7%
TAATGGTTTTCTACAC (sugars k3 d10 k3, PS)	40%
TAATGTAGTGTAACAT (sugars k3 d10 k3, PS)	29%
TAATGTCAGCCCAGTA (sugars k3 d10 k3, PS)	7%
TACACCCAGTGGCTCA (sugars k3 d10 k3, PS)	30%
TACACCTCAGTACGAA (sugars k3 d10 k3, PS)	28%
TACATGTTCCCACCCA (sugars k3 d10 k3, PS)	39%
TACCGCACAGCTCGGG (sugars k3 d10 k3, PS)	20%
TACCTTAACATCTTGT (sugars k3 d10 k3, PS)	14%
TACGAAACTCCCCCAT (sugars k3 d10 k3, PS)	6%
TACGAAAGTCCTTCAC (sugars k3 d10 k3, PS)	35%
TACGACTGCTTAAAAC (sugars k3 d10 k3, PS)	5%
TACTATATTTAAGGCC (sugars k3 d10 k3, PS)	1%
TACTATCCCATCACTG (sugars k3 d10 k3, PS)	42%
TACTCCATGAAGAAGC (sugars k3 d10 k3, PS)	-26%
TACTCTAATCACTGTC (sugars k3 d10 k3, PS)	15%
TACTGAAGAGCATTGG (sugars k3 d10 k3, PS)	71%
TACTTAAATTACTAGC (sugars k3 d10 k3, PS)	28%
